Data set [1] has as its system Pullularia pullulans CBS 10767. Nature of the data set: Microbiological test. Type of data set: cell-based. An excerpt:
(§1) In the test for microbiocidal activity the compounds listed hereinbelow yielded the values indicated in the following Table: No. Compound __________________________________________________________________________ 1 (n--C4 H9)3 Sn--S--CH2 --CH2 --COO.(CH 2 --CH2 --O--n H(n~9) 2 (C6 H5)3 Sn--S--(CH2)3 --SO3.Na CH3 .vertline. 3 --Sn--S--CH2 --CH2 --COO--(CH2 --CH2 --O)n.H(n ~9) .vertline. CH3 4 (n--C4 H9)3 Sn--S--CH2 --COO.H.N(CH2 CH2 OH)3 5 (n--C4 H9)3 Sn--S--(CH2)2 --COO.H.N(CH2 CH2 OH)3 6 (n--C4 H9)3 Sn--S--CH2 --CO.N(CH2 CH2 OH)2 __________________________________________________________________________

The test system of data set [2] is Arizona paracolon 7:1.7,8. Description: Microbiological test. In kind it is cell-based.
Text: as §1

For data set [3], the system named is Alternaria tenuis CBS 10426. Nature of the data set: Microbiological test. Type of data set: cell-based.
Text: as §1

The test system of data set [4] is Pasteurella multocida K753. Description: Microbiological test. Type of data set: cell-based.
Text: as §1

Data set [5] has as its system Streptococcus faecalis NCTC 8619. Description: Microbiological test. Type of data set: cell-based.
Text: as §1

Data set [6] has as its system Aspergillus flavus CBS 12662. Description: Microbiological test. In kind it is cell-based.
Text: as §1

The test system of data set [7] is Corynebacterium diphteroides FUR. Nature of the data set: Microbiological test. Type of data set: cell-based.
Text: as §1

Data set [8] deals with Trichophyton gypseum CBS. Description: Microbiological test. In kind it is cell-based.
Text: as §1

Data set [9] deals with Poria vaporia CBS. Description: Microbiological test. Type of data set: cell-based.
Text: as §1

In data set [10] the test system is Trichoderma viride CEB 3334.2. Description: Microbiological test. In kind it is cell-based.
Text: as §1

In data set [11] the test system is Escherichia coli RP 45410. Description: Microbiological test. In kind it is cell-based.
Text: as §1

Data set [12] concerns Chaetomium globosum CBS 14851. Description: Microbiological test. In kind it is cell-based.
Text: as §1

Data set [13] has as its system Escherichia coli NCTC 8195. Description: Microbiological test. In kind it is cell-based.
Text: as §1

Data set [14] relates to Penicillium funiculosum CEB 329631. Nature of the data set: Microbiological test. In kind it is cell-based.
Text: as §1

Data set [15] concerns Pilz schwarzlich DAP. Nature of the data set: Microbiological test. In kind it is cell-based.
Text: as §1

Data set [16] concerns Mycobacterium phlei CITM 61. Description: Microbiological test. Type of data set: cell-based.
Text: as §1

The test system of data set [17] is Pseudomonas fluorescens NCTC 4755. Description: Microbiological test. In kind it is cell-based.
Text: as §1

Data set [18] relates to Sarcina ureae SMB 81. Nature of the data set: Microbiological test. Type of data set: cell-based.
Text: as §1

Data set [19] has as its system Aspergillus niger ATCC 6275. Description: Microbiological test. In kind it is cell-based.
Text: as §1

Data set [20] relates to Hefe DAP. Description: Microbiological test. In kind it is cell-based.
Text: as §1

The subject of data set [21] is Salmonella gallinarum VBIB. Description: Microbiological test. In kind it is cell-based.
Text: as §1

In data set [22] the test system is Candida albicans CBS. Description: Microbiological test. Type of data set: cell-based.
Text: as §1

Data set [23] relates to Streptococcus agalactiae M100. Nature of the data set: Microbiological test. In kind it is cell-based.
Text: as §1

For data set [24], the system named is Salmonella pullorum VBIZ. Nature of the data set: Microbiological test. Type of data set: cell-based.
Text: as §1

Data set [25] relates to Bacillus subtilis NCTC 6460. Nature of the data set: Microbiological test. Type of data set: cell-based.
Text: as §1

The test system of data set [26] is Fusarium spec. DAP. Nature of the data set: Microbiological test. In kind it is cell-based.
Text: as §1

Data set [27] deals with Lenzites abietina CBS. Nature of the data set: Microbiological test. Type of data set: cell-based.
Text: as §1

Data set [28] deals with Hefe rot DAP. Description: Microbiological test. Type of data set: cell-based.
Text: as §1

The test system of data set [29] is Fusarium oxysporum CBS. Nature of the data set: Microbiological test. In kind it is cell-based.
Text: as §1

Data set [30] has as its system Paecilomyces varioti CBS. Description: Microbiological test. In kind it is cell-based.
Text: as §1

The subject of data set [31] is Penicillium expansum SMC 36. Description: Microbiological test. Type of data set: cell-based.
Text: as §1

For data set [32], the system named is Stachybotrys atra CBS 32465. Description: Microbiological test. Type of data set: cell-based.
Text: as §1

Data set [33] relates to Staphylococcus aureus SG 511. Description: Microbiological test. Type of data set: cell-based.
Text: as §1

The subject of data set [34] is Staphylococcus aureus SG 511 M6. Description: Microbiological test. Type of data set: cell-based.
Text: as §1

The subject of data set [35] is Polystictus versicolor EMPA61. Description: Microbiological test. In kind it is cell-based.
Text: as §1

Data set [36] has as its system Coniphora cerebella CBS. Description: Microbiological test. Type of data set: cell-based.
Text: as §1

In data set [37] the test system is Salmonella cholerae-suis VBIB. Type of data set: cell-based.
For data set [38] the following is noted: in water / neutral medium / strongly acid or alkaline pH.
Data set [39] can be described thus: Solubility in water. In kind it is physicochemical. The note with it: for Solubility in water (in words): Table 1 and text. An excerpt: Solubility properties of tributyltin derivatives [formula]

Results on six compounds are retold here after US3931262A, “Hydrophilic and difficultly volatile biocidal triorganotin compounds” (priority 1972, dated 1976).

For the compound “S-tri-n-butyl-tin-β-mercaptopropionic acid polyethylene glycol ester [Compound 1]”, the Activity range in data set [1] is given as 10 ppm; in data set [2], over 300 ppm; in [3], 30 ppm; in [4], 10 ppm; in [5], 10 ppm; in [6], 30 ppm. The Activity range came out at 10 ppm in data set [7]; 30 ppm in [8]; 100 ppm in [9]; 100 ppm in data set [10]; 10 ppm in [11]; 10 ppm in data set [12]. In addition, the Activity range came to 10 ppm in data set [13]; 30 ppm in data set [14]; 10 ppm in data set [15]; 3 ppm in data set [16]; 10 ppm in data set [17]; 10 ppm in [18]. In addition, the Activity range in data set [19] is reported as 30 ppm; in data set [20] it was 10 ppm; in data set [21], over 300 ppm; in [22] it was 30 ppm; in [23], 3 ppm; in data set [24] it was over 300 ppm. In addition, the Activity range is recorded as 10 ppm in [25]; 30 ppm in data set [26]; 10 ppm in [27]; 10 ppm in [28]; 30 ppm in data set [29]; 30 ppm in [30]. Moreover, the Activity range is 30 ppm in data set [31]; 10 ppm in data set [32]; 10 ppm in data set [33]; 10 ppm in data set [34]; 100 ppm in data set [35]; 10 ppm in [36]. Besides, the Activity range in [37] was over 300 ppm.
Consider `CCC[CH2][Sn]([CH2]CCC)([CH2]CCC)[O]S(N)(=O)=O` [tributyltin sulphaminate], for which, in [38], the “stability to hydrolysis (in words)” value is recorded as “hydrolytically split off in water at once”.
For `CCC[CH2][Sn]([CH2]CCC)([CH2]CCC)[S]CC(O)CO` (centres unmarked) [--CH2 --CH--CH2], in data set [39], the “Solubility in water (in words)” value is “satisfactory”.
`CCC[CH2][Sn]([CH2]CCC)([CH2]CCC)[O][Sn]([CH2]CCC)([CH2]CCC)[CH2]CCC` [TBTO, bis-(tri-n-butyltin)-oxide] displayed a Solubility in water in data set [39] (Table 1, comparison) of 20 ppm. In addition, the “Solubility in water (in words)” value in data set [39] was “poor”.
Regarding `CCC[CH2][Sn]([CH2]CCC)([CH2]CCC)[S]CCC(=O)[O-].OCC[NH+](CCO)CCO` [Compound 5, triethanolammonium S-tri-n-butyl tin-β-mercaptopropionate], the Activity range in data set [1] is 10 ppm; in data set [2] it was over 300 ppm; in [3], at most 3 ppm; in data set [4], 30 ppm; in data set [5] it was 100 ppm; in [6] it was 10 ppm. For the same compound, the Activity range in data set [7] is given as 10 ppm; in data set [8], 10 ppm; in data set [9] it was 10 ppm; in [10] it was 10 ppm; in data set [11], over 300 ppm; in data set [12], at most 3 ppm. Moreover, the Activity range was over 300 ppm in [13]; 10 ppm in data set [14]; 10 ppm in [16]; 30 ppm in [17]; 30 ppm in data set [18]; 10 ppm in [19]. Moreover, the Activity range in data set [22] was 10 ppm; in [23] it was 30 ppm; in data set [24] it was over 300 ppm; in data set [25], 10 ppm; in [27], 10 ppm; in data set [29], 10 ppm. The Activity range is given as at most 3 ppm in data set [30]; 10 ppm in data set [31]; at most 3 ppm in data set [32]; 10 ppm in data set [33]; 30 ppm in data set [34]; 30 ppm in data set [35]. The Activity range was 10 ppm in data set [36] and over 300 ppm in data set [37].
As for `O=S(=O)([O-])CCC[S][Sn]([c]1ccccc1)([c]1ccccc1)[c]1ccccc1.[Na+]` [Compound 2, sodium S-triphenyl tin-γ-mercaptopropanesulphonate], the Activity range is listed as 3 ppm in data set [1]; over 300 ppm in [2]; 10 ppm in data set [3]; over 300 ppm in data set [4]; 10 ppm in data set [5]; 30 ppm in data set [6]. Besides, the Activity range is on record as 3 ppm in [7]; 30 ppm in data set [8]; 3 ppm in data set [9]; 10 ppm in [10]; 10 ppm in [11]; 10 ppm in data set [12]. In addition, the Activity range in data set [13] was 30 ppm; in data set [14], 100 ppm; in data set [15] it was 30 ppm; in [16] it was 3 ppm; in [17] it was over 300 ppm; in data set [18], 3 ppm. The Activity range in data set [19] was 30 ppm; in data set [20] it was 10 ppm; in data set [21], over 300 ppm; in [22], 30 ppm; in data set [23], 3 ppm; in data set [24], over 300 ppm. Further, the Activity range in data set [25] was determined as 3 ppm; in data set [26], 30 ppm; in data set [27] it was 100 ppm; in data set [28], 10 ppm; in data set [29], 10 ppm; in data set [30], 10 ppm. The Activity range is 30 ppm in [31]; 10 ppm in [32]; 3 ppm in data set [33]; 10 ppm in data set [34]; 30 ppm in data set [35]; 30 ppm in [36]. Besides, the Activity range in data set [37] is reported as over 300 ppm.
